The target of one data set is T1, Kir6.2/SUR1 (Homo sapiens, UniProt Q14654).
T1 construct: expressed in transfected cells
Kind of data set: Tl+ flux assay, mammalian Kir6.2/SUR1. The class given is cell-based.

For another data set, the target named is T2, Kir4.1 (Homo sapiens, UniProt P78508).
T2 construct: expressed in transfected cells
T2 sequence (P78508 1-379): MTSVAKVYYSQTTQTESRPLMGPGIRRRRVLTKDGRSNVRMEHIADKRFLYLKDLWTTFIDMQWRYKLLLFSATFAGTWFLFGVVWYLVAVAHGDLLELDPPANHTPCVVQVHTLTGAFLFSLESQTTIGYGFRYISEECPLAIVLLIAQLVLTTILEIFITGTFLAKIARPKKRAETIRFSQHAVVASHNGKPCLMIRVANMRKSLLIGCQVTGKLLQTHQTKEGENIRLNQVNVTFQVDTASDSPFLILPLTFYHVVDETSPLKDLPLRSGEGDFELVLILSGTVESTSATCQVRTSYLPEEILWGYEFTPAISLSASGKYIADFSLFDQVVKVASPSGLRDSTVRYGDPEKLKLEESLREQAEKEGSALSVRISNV
Kind of data set: Tl+ flux assay, mammalian Kir4.1. Type of data set: cell-based.

For the next data set, the system named is honey bee, A. mellifera. Kind of data set: Acute topical toxicity to adult honey bees. Type of data set: in vivo, Apis mellifera. Particulars: 1 mg per bee topical, 48 h. The protocol: Frames of late-stage honey bee (A. mellifera) pupae were taken from four colonies at The Ohio State University Honey Bee Lab in Wooster, OH and maintained in a dark humid incubator at 34 °C (Darwin Chambers Co., St. Louis, MO, model H024) until adult bees emerged. New adults were brushed from frames daily and placed in wooden screen cages (21 × 14 × 12 cm) provisioned with 1:1 (w/w) sucrose in water.
Acute toxicity experiments in adult bees were performed as follows. Twenty-four hours after emergence, adult honey bees in cages were anaesthetized with carbon dioxide, divided into groups of approximately 20 bees and placed in plastic-coated paper cups (177 cm^3; UNIQ Paper Yogurt Cup, Frozen Dessert Supplies, Gilbert, AZ) covered with cotton cheesecloth. […] As a positive control, some bees were treated with 3 μl of bifenthrin (0.1 μg/μl); negative controls consisted of bees treated with 3 μl of solvent. Applications were made using a 20 μl micropipette (Fisherbrand Finnpipette F2, Fisher Scientific, Pittsburgh, PA) with disposable plastic tips. After treatment, bees were returned to the paper cups and provided with sugar syrup in punctured 1.5 ml microcentrifuge tubes. […] Bees showing no movement on inspection at 48 h after treatment were scored as dead.

The next data set addresses T3, Kir1.1 (Rattus norvegicus, UniProt P35560).
T3 sequence (P35560 1-391): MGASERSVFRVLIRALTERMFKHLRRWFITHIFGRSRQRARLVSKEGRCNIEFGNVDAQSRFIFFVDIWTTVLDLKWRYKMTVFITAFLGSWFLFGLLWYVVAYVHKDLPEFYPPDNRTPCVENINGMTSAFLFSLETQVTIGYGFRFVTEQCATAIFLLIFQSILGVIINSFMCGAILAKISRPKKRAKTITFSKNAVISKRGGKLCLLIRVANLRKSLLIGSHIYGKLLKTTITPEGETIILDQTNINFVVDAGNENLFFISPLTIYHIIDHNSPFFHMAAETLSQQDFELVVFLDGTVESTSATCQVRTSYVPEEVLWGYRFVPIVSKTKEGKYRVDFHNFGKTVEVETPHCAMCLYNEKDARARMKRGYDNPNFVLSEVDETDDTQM
Kind of data set: Tl+ flux assay, mammalian Kir1.1. The class given is cell-based. Particulars: read-out: inhibition of Kir1.1.

The next data set has as its system Ae. aegypti. Nature of the data set: Fecundity (eggs laid) in Ae. aegypti. Particulars: 3.4 μg/mg mosquito, topical within 1 h after engorgement, 72 h post blood feeding. Type of data set: in vivo, Aedes aegypti. As to the method:
The mosquitoes were returned to rearing conditions for 24 h after which they were transferred to individual egg laying tubes consisting of a glass tube 21 × 70 mm (Fisher Scientific, Pittsburg, PA) with a piece of coffee filter ([…] USA, Clearwater, FL) cut to fit the bottom of the tube. The filter was wetted with 150 μl of dH2O and the open end of the tube was plugged with a cotton ball. The mosquitoes in their individual egg laying tubes were returned to rearing conditions for an additional 48 h, and the number of eggs laid were counted. Any mosquitoes that died during the 72 h period after blood feeding were excluded from the analysis. Thirty female mosquitoes were used per replicate for each treatment group; each treatment was repeated on four separate broods, giving a total number of individuals studied ranging from 87-113 for each treatment group. For both species, the median number of eggs laid per mosquito was compared using a Kruskal-Wallis ANOVA with a Dunn's post-hoc analysis (Prism 6, Graphpad Software).

T1 sequence (Q14654 whole entry): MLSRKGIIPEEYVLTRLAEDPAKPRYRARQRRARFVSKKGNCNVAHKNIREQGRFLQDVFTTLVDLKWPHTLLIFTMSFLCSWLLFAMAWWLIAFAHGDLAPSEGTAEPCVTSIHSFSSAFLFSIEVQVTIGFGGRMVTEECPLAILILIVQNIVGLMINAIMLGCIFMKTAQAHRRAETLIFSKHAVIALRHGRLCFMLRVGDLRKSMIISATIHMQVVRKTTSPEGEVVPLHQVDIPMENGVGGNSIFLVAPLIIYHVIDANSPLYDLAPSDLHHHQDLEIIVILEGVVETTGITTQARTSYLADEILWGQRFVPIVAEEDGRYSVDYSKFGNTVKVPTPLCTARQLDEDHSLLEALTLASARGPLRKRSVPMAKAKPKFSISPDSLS
T1 sequence (Q09428 whole entry partner): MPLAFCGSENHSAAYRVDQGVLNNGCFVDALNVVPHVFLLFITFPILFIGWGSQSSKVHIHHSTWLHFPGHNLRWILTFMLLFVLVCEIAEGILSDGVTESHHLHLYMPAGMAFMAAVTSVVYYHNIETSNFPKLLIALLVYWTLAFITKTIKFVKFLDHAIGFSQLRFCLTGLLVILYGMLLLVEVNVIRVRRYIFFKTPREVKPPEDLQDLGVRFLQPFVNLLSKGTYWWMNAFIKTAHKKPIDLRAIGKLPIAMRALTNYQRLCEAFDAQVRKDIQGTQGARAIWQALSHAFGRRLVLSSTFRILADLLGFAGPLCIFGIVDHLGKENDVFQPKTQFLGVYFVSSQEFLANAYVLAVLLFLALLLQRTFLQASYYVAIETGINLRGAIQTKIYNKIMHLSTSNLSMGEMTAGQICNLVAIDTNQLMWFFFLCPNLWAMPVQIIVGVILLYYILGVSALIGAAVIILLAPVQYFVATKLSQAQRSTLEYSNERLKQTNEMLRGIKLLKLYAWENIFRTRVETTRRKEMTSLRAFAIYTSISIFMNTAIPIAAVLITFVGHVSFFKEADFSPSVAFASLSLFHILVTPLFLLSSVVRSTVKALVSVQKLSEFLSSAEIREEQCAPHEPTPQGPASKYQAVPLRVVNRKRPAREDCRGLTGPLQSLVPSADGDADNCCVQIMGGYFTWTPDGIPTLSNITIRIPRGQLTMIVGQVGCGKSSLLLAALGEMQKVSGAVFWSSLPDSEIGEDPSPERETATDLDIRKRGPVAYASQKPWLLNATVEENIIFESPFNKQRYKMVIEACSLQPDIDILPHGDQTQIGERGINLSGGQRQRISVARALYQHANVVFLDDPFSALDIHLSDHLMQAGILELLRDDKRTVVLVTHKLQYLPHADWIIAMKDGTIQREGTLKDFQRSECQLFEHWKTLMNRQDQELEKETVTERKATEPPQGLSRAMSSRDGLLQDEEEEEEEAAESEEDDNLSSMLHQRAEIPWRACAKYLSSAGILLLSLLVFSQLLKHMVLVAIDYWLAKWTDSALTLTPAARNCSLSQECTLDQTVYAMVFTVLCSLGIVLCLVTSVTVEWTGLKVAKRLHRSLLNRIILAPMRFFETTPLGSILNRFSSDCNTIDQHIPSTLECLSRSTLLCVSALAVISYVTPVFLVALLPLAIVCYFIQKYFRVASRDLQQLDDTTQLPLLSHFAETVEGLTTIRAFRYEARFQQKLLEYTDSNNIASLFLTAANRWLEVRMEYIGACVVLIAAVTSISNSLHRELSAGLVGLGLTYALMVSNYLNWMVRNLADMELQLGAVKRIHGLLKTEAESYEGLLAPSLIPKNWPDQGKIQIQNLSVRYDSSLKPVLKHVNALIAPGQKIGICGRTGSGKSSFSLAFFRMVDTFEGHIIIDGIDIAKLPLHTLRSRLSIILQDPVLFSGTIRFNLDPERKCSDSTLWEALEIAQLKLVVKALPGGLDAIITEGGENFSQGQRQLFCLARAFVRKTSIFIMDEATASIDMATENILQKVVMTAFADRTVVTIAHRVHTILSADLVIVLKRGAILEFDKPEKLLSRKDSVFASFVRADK

For the compound `O=C(Cn1nc(C(F)(F)F)c2c1CCCC2)N1CCCc2ccccc21` [VU041, 1-(3,4-dihydroquinolin-1(2H)-yl)-2-(3-(trifluoromethyl)-4,5,6,7-tetrahydro-1H-indazol-1-yl)ethan-1-one], the inhibition at 30 µM against Kir6.2/SUR1, against Kir4.1 and at Kir1.1 was < 10% in each case. For the same compound, the honey bees alive with honey bee, A. mellifera came out at 91.3%. In addition, the “median number of eggs laid per mosquito vs control” value in the data set with Ae. aegypti is given as “significantly lower median number of eggs per mosquito”.

The values above are taken from paper PMC5111108, “An insecticide resistance-breaking mosquitocide targeting inward rectifier potassium channels in vectors of Zika virus and malaria” (Scientific Reports, 2016).
